Experimental data as given in PMC12424025, “Deep Structural Characterization of Protein-Bound Lipids via Native MS and Ultraviolet Photodissociation” (Analytical Chemistry, 2025).

Target: T1, AqpZ (Escherichia coli, UniProt P60844)
T1 construct: C-terminal GFP-His tag cut by TEV protease; expressed in E. coli BL21(DE3); DDM-purified, C8E4 for native MS; homotetramer about 102 kDa with lipids (17-, m/z 6000)
T1 sequence (P60844 1-231): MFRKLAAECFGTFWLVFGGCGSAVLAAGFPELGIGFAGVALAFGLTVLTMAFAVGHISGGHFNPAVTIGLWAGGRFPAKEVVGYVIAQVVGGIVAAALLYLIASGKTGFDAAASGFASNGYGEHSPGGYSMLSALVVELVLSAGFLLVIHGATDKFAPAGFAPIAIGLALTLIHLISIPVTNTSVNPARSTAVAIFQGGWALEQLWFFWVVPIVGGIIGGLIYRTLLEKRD
Assay: native MS with single lipid standard
Format: binding
Settings: 200 mM ammonium acetate pH 7.0, 2xCMC C8E4

SMILES | native MS with single lipid standard
CCCCCCCC/C=C\CCCCCCCC(=O)OC[C@H](COP(=O)(O)OCC(O)COP(=O)(O)OC[C@@H](COC(=O)CCCCCCC/C=C\CCCCCCCC)OC(=O)CCCCCCC/C=C\CCCCCCCC)OC(=O)CCCCCCC/C=C\CCCCCCCC (some centres unmarked) [CDL 18:1(9Z)] | The resulting native mass spectra confirmed that all three lipid classes bind to the membrane protein
CCCCCCCC/C=C\CCCCCCCC(=O)OC[C@H](COP(=O)(O)OCC(O)CO)OC(=O)CCCCCCC/C=C\CCCCCCCC (some centres unmarked) [DOPG] | The resulting native mass spectra confirmed that all three lipid classes bind to the membrane protein
